How the values were obtained:
Assay type in all cases: in vivo
[1] = system: Colletotrichum sublineolum; assay: Detached sorghum leaf piece assay, control of anthracnose; conditions: sorghum leaf pieces, strain 1×10^8 CFU/ml, pyraclostrobin 10 ppm
Experimental: (§1) For detached-leaf assays performed in the following examples, bacterial strains stored in a freezer (−80° C.) were each streaked onto Luria Bertani (LB) agar (25 g LB broth and 15 g agar per liter of deionized water) in an 8.5-cm diameter plastic plate. A single colony from the plate was picked and placed in 50 ml of either LB liquid broth or a liquid broth consisting of NaCl (5 g), tryptone (10 g), nutrient broth (8 g), CaCl2 (0.14 mM), MgCl2·6H2O (0.2 mM), and MnCl2·4H2O (0.01 mM) per liter of deionized water in a 250-ml flask. Calcium chloride (CaCl2), MgCl2, and MnCl2 were filtered sterilized using 0.22 μm vacuum filter and were then added to NaCl, tryptone, nutrient broth (which were autoclaved together). Cultures were harvested after 48 h by pelleting cells and re-suspending to original volume in sterile H2O. Colony forming units (CFU/mL) were determined using standard dilution plate count method, and plates were inspected for signs of contamination. Sterile distilled water was added to achieve a final concentration needed in detached-leaf or growth chamber strain evaluations. […]
Seven days post inoculation, the leaf pieces were assessed for anthracnose severity on a scale of 0-4 according to Prom et al., 2016 (Plant Path J. 15(1): 11-16), with few modifications. […] Data was analyzed using analysis of variance (ANOVA) in JMP® (version 14.0.0; SAS Institute Inc., Cary, NC). […]

Podosphaera xanthii [2] = assay: Squash leaf disc assay with wettable powder formulations, control of powdery mildew; conditions: squash leaf discs, 150 μL, tebuconazole 10 ppm as control
Experimental: For the tray drying method, 829 grams of cell paste obtained from a liquid culture of ATP15329 was mixed with 18.24 g of glycerol and 72.95 g of microcel E using a food processor. Half of the cell paste was dried at 40° C. to a water activity of less than 0.30, at which time it contained 3.53E11 CFU/g. The other half was dried at 25° C. and 50% RH to a water activity of less than 0.6, at which time it contained 4.75E11 CFU/g. The dried powder formulation was stored in heat sealed mylar pouches at 4° C.
For the spray drying method, 200 grams of cell paste obtained from a liquid culture of ATP15329 was mixed with 22 g of skim milk powder using an emulsion blender. This material was spray dried at outlet temperature of 70° C., at which time it contained 7.86E10 CFU/g. The dried powder formulation was stored in heat sealed mylar pouches at 4° C.
This evaluation followed the protocol used in Example 3. Briefly, leaf disks were each sprayed with 150 μL of different formulations of the bacterial strain AIP015329, tebuconazole 10 ppm (fungicide control) on the adaxial surface 24 hours before inoculation with the fungal pathogen. After treatment, leaf disks were incubated in the dark for 24 hours at 23° C.
Leaf disks were inoculated on the treated leaf surface by spraying a conidial suspension (1×10^6 conidia/ml of sterile distilled water) of P. xanthii. Inoculated and non-inoculated/not treated controls were added. Treatments were placed into sealed clear plastic boxes and incubated for six days at 25° C. with a relative humidity of 80% and a 12 h photoperiod. Each treatment was rated on a disease severity scale from 0 to 4, with 0 being no symptoms and 4 being greater than 50% of the leaf disk covered with colonies. The number of powdery mildew colonies were also recorded for each treatment. This experiment was run once, with each treatment replicated three times. Data was analyzed in SAS JMP version 14.0.

Podosphaera xanthii [3] = assay: Squash leaf disc assay, control of powdery mildew on cucurbits; conditions: squash leaf discs, bacterial suspension 200 μL, tebuconazole 10 ppm
Experimental: as §1, with “contamination.” for “contamination. Sterile distilled water was added to achieve a final concentration needed in detached-leaf or growth chamber strain evaluations.”
Leaf disks were inoculated on the treated leaf surface by spraying a conidial suspension (1×10^6 conidia/ml of sterile distilled water) of P. xanthii (an isolate obtained from Dr. McGrath laboratory, Cornell University). […] The number of powdery mildew colonies were also recorded for each treatment. […] Data was analyzed in SAS JMP version 14.0.

Mycosphaerella fijiensis = assay: Grand Nain (Musa) leaf piece assay, control of black sigatoka; conditions: Grand Nain leaf pieces, strain 1×10^8 CFU/ml, mancozeb 10 ppm
Experimental: as §1
Data recorded were the most progressed stage on inoculated leaves, 3 to 4 weeks after inoculation (Stover 1986). Data were analyzed using analysis of variance (ANOVA) in PROC GLM of SAS (version 9.4; SAS Institute Inc., Cary, NC) and significant differences (P<0.05) were observed among treatments.

In the case of `COC(=O)N(OC)c1ccccc1COc1ccn(-c2ccc(Cl)cc2)n1` [Pyraclostrobin], the “Disease Control (%) Confirmation” value ([1]; confirmation screen with freshly grown culture) is reported as 79.2 (a) % and the “Disease Control (%) Primary Screen” value ([1]; treated 24 h before inoculation, rated 7 days post inoculation) is reported as 95.2 (a) %.
`CC(C)(C)C(O)(CCc1ccc(Cl)cc1)Cn1cncn1` (stereo not drawn) [Tebuconazole, tebuconazole] was tested, and the “Disease Control (%) Spray dry” value (Podosphaera xanthii [2]; spray dried formulation of the strain) was 96.0 (a) %, the “Disease Control (%) Tray dry Dried at 25° C.” value (Podosphaera xanthii [2]; tray dried formulation dried at 25° C.) was 96.0 (a) % and the “Disease Control (%) Tray dry Dried at 40° C.” value (Podosphaera xanthii [2]; tray dried formulation dried at 40° C.) was 96.0 (a) %. The “Disease Control (%) Confirmation” value (Podosphaera xanthii [3]; confirmation) was 75.0 (a) % and the “Disease Control (%) Primary Screen” value (Podosphaera xanthii [3]; treated 24 h before inoculation, six days incubation) was 87.5 (a) %.
With mancozeb the “Disease Control (%) Primary Screen” value (Mycosphaerella fijiensis; 3 to 4 weeks after inoculation) was 92.3 (a) % and the “Disease Control (%) Confirmation” value (Mycosphaerella fijiensis; confirmation) was 81.0 (a) %.

Source: patent publication US20240251801A1, “COMPOSITIONS AND METHODS FOR IMPROVING PLANT HEALTH AND CONTROLLING PLANT DISEASE” (AgBiome, Inc., priority 2021, published 2024)
